Source: patent US11033527B2, “Non-hormonal treatment of the genitourinary syndrome of menopause” (IMMUGEN PHARMA LLC, priority 2018, dated 2021)
Where “and” joins values, the source holds several entries; their conditions need not be identical. Identical values can stand only once.

Legend:
[1] = molecular target: endocannabinoid receptor type 2 (CB2) (Homo sapiens, UniProt P34972); conditions: cited from earlier work
vaginal tissue construct = experiment: microarray analysis of differential gene expression (Affymetrix Human Gene 1.0 ST arrays), tissues treated for seven days via culture medium; format: cell-based
Source text: The data from the Affymetrix Human Gene 1.0 ST arrays were normalized using the Robust Multiarray Average (RMA) algorithm and a Chip Definition File (CDF) that maps the probes on the array to unique Entrez Gene identifiers. The result is a matrix in which each column corresponds to a sample. The expression values are log 2-transformed by default.
By using a fold change >1.5, an analysis of differentially expressed genes was done to identify those genes which were involved in the cornified envelope, keratinocyte differentiation, cell differentiation, epidermis development, epithelial cell differentiation, junctional proteins and signaling, immune response and innate immune response.

[2] = down-regulated by this fold, given without sign

endocannabinoid receptor type 2 (CB2), sequence (P34972 whole entry, species assumed): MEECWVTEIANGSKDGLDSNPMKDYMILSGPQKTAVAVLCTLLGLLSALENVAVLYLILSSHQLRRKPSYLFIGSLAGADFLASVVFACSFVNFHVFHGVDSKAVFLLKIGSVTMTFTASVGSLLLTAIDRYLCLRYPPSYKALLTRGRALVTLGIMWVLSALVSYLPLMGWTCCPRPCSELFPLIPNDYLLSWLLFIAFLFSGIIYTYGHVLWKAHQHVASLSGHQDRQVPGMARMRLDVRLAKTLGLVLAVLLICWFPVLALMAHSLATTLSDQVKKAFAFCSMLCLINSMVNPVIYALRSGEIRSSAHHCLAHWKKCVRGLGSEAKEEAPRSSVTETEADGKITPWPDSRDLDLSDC

In the case of CCCC(C)(C)c1ccc2c(c1)OC(C)(C)[C@@H]1CC=C(C)C[C@@H]21 [JWH-133], the “agonist type by receptor internalization” value [1] is given as “full agonist”, the “SPRR2D Fold Change” value (vaginal tissue construct) is given as 2.839 fold and the “WFDC12 Fold Change” value (vaginal tissue construct) is given as 5.534 fold. For the same compound, the CFB down-regulation (vaginal tissue construct; [2]) was 2.167 fold, the CFH down-regulation (vaginal tissue construct; [2]) was 1.681 fold and the “AGR2 Fold Change” value (vaginal tissue construct; gene Anterior gradient homolog 2 (Xenopus laevis)) was −2.5 fold. For the same compound, the “CXCL8 Expr Fold Change” value (vaginal tissue construct; gene C-X-C motif chemokine ligand 8) was −2.155 fold, the “CXCL17 Expr Fold Change” value (vaginal tissue construct; gene C-X-C motif chemokine ligand 17) was −1.881 fold and the “CXCR2 Expr Fold Change” value (vaginal tissue construct; gene C-X-C motif chemokine receptor 2) was 2.121 fold. For the same compound, the “CD14 Expr Fold Change” value (vaginal tissue construct; gene CD14 molecule) was −2.286 fold, the “CD74 Expr Fold Change” value (vaginal tissue construct; gene CD74 molecule) was −1.676 fold and the “CD151 Expr Fold Change” value (vaginal tissue construct; gene CD151 molecule (Raph blood group)) was −1.653 fold. For the same compound, the “CD244 Expr Fold Change” value (vaginal tissue construct; gene CD244 molecule) was 2.489 fold, the “CDSN Fold Change” value (vaginal tissue construct; gene Corneodesmosin) was 6.888 fold and the “CCL28 Expr Fold Change” value (vaginal tissue construct; gene C−C motif chemokine ligand 28) was −2.39 fold. For the same compound, the “FYB1 Expr Fold Change” value (vaginal tissue construct; gene FYN binding protein 1) was −2.398 fold, the “IFNE Fold Change” value (vaginal tissue construct; gene Interferon Epsilon) was 4.439 fold and the “IL19 Fold Change” value (vaginal tissue construct; gene Interleukin 19) was −2.2 fold. The “NLRP10 Fold Change” value (vaginal tissue construct; gene NLR family pyrin domain containing 10) was 10.11 fold, the “RNAse7 Fold Change” value (vaginal tissue construct; gene RNAse family) was 6.145 fold and the “TIAM1 Expr Fold Change” value (vaginal tissue construct; gene T cell lymphoma invasion and metastasis 1) was 2.018 fold. For the same compound, the “TNFAIP8 Expr Fold Change” value (vaginal tissue construct; gene TNF alpha induced protein 8) was −1.724 fold, the “TNFRSF10C Expr Fold Change” value (vaginal tissue construct; gene TNF receptor superfamily member 10c) was −2.114 fold and the “TNFRSF11B Expr Fold Change” value (vaginal tissue construct; gene TNF receptor superfamily member 11b) was −2.006 fold. The “TSPAN1 Fold Change” value (vaginal tissue construct; gene Tetraspanin 1) was −1.9 fold, the “TGM1 Fold Change” value (vaginal tissue construct; gene Transglutaminase 1) was 1.809 fold and the “TGM3 Fold Change” value (vaginal tissue construct; gene Transglutaminase 3) was 23.784 fold and 24 fold. For the same compound, the “TGM5 Fold Change” value (vaginal tissue construct; gene Transglutaminase 5) was 2.346 fold, the “TRIM31 Fold Change” value (vaginal tissue construct; gene Tripartite motif-containing 31) was −4.5 fold and the “VTCN1 Expr Fold Change” value (vaginal tissue construct; gene V-set domain containing T cell activation inhibitor 1) was −2.694 fold. For the same compound, the “WFDC2 Fold Change” value (vaginal tissue construct; gene WAP four-disulfide core domain 2) was −2.6 fold, the “WFDC5 Fold Change” value (vaginal tissue construct; gene WAP four-disulfide core domain 5) was 2.807 fold and the “ALOX12B Fold Change” value (vaginal tissue construct; gene arachidonate 12-lipoxygenase, 12R type) was 6.023 fold. For the same compound, the “ALOX12 Fold Change” value (vaginal tissue construct; gene arachidonate 12-lipoygenase) was 1.8 fold, the “ALOXE3 Fold Change” value (vaginal tissue construct; gene arachidonate lipoxygenase 3) was 2.881 fold and the “ASS1 Fold Change” value (vaginal tissue construct; gene arginosuccinate synthetase 1) was −2.4 fold. The “CLDN17 Fold Change” value (vaginal tissue construct; gene claudin 17) was 8.7 fold, the “CCDC59 Expr Fold Change” value (vaginal tissue construct; gene coiled-coil domain containing 59) was −1.956 fold and the “CSF2RB Expr Fold Change” value (vaginal tissue construct; gene colony stimulating factor 2 receptor beta common subunit) was 2.595 fold. For the same compound, the “CFH Expr Fold Change” value (vaginal tissue construct; gene complement factor H) was −1.681 fold, the “CNFN Fold Change” value (vaginal tissue construct; gene cornifelin) was 1.706 fold and the “CRCT1 Fold Change” value (vaginal tissue construct; gene cysteine-rich C-terminal 1) was 2.3 fold. For the same compound, the “DMKN Fold Change” value (vaginal tissue construct; gene dermokine) was 2.043 fold, the “DCS3 Fold Change” value (vaginal tissue construct; gene descmocollin 3) was 1.5 fold and the “DSC1 Fold Change” value (vaginal tissue construct; gene desmocollin 1) was 6.69 fold. For the same compound, the “DSC2 Fold Change” value (vaginal tissue construct; gene desmocollin 2) was 1.6 fold, the “DSG1 Fold Change” value (vaginal tissue construct; gene desmoglein 1) was 7.572 fold and 7.2 fold and the “FLG Fold Change” value (vaginal tissue construct; gene filaggrin) was 3.151 fold. The “FLG2 Fold Change” value (vaginal tissue construct; gene filaggrin family member 2) was 6.801 fold, the “GYS2 Fold Change” value (vaginal tissue construct; gene glycogen synthase 2 (liver)) was 3.1 fold and the “KPRP Fold Change” value (vaginal tissue construct; gene human keratinocyte proline rich protein) was 17.392 fold and 20.8 fold. For the same compound, the “IFIT5 Expr Fold Change” value (vaginal tissue construct; gene interferon induced protein with tetratricopeptide repeats 5) was −1.97 fold, the “IFIH1 Expr Fold Change” value (vaginal tissue construct; gene interferon induced with helicase C domain 1) was −2.099 fold and the “IRF1 Expr Fold Change” value (vaginal tissue construct; gene interferon regulatory factor 1) was −3.083 fold. For the same compound, the “IRF9 Expr Fold Change” value (vaginal tissue construct; gene interferon regulatory factor 9) was −1.62 fold, the “IL1RL2 Expr Fold Change” value (vaginal tissue construct; gene interleukin 1 receptor like 2) was 2.54 fold and the “IL7R Expr Fold Change” value (vaginal tissue construct; gene interleukin 7 receptor) was −2.062 fold. The “IL18BP Expr Fold Change” value (vaginal tissue construct; gene interleukin 18 binding protein) was 1.523 fold, the “IL23A Expr Fold Change” value (vaginal tissue construct; gene interleukin 23 subunit alpha) was 2.346 fold and the “IL33 Expr Fold Change” value (vaginal tissue construct; gene interleukin 33) was −3.314 fold. The “IL36A Expr Fold Change” value (vaginal tissue construct; gene interleukin 36 alpha) was 4.253 fold, the “IL36RN Expr Fold Change” value (vaginal tissue construct; gene interleukin 36 receptor antagonist) was 4.029 fold and the “KLK6 Fold Change” value (vaginal tissue construct; gene kallikrein related peptidase 6) was 4.063 fold. The “KLK8 Fold Change” value (vaginal tissue construct; gene kallikrein related peptidase 8) was 1.504 fold, the “KLK10 Fold Change” value (vaginal tissue construct; gene kallikrein related peptidase 10) was 2.214 fold and the “KLK12 Fold Change” value (vaginal tissue construct; gene kallikrein related peptidase 12) was 3.882 fold. For the same compound, the “KLK13 Fold Change” value (vaginal tissue construct; gene kallikrein related peptidase 13) was 3.278 fold, the “KRT1 Fold Change” value (vaginal tissue construct; gene keratin 1) was 7.122 fold and 8.7 fold and the “KRT2 Fold Change” value (vaginal tissue construct; gene keratin 2) was 1.764 fold. For the same compound, the “KRT20 Fold Change” value (vaginal tissue construct; gene keratin 20) was −2.992 fold, the “KRT23 Fold Change” value (vaginal tissue construct; gene keratin 23) was 1.631 fold and the “KRT24 Fold Change” value (vaginal tissue construct; gene keratin 24) was 1.699 fold. The “KRTDAP Fold Change” value (vaginal tissue construct; gene keratinocyte differentiation associated protein) was 9.891 fold and 10.1 fold, the “LCE1A Fold Change” value (vaginal tissue construct; gene late cornified envelope 1A) was 1.526 fold and the “LCE1C Fold Change” value (vaginal tissue construct; gene late cornified envelope 1C) was 2.292 fold. The “LCE1F Fold Change” value (vaginal tissue construct; gene late cornified envelope 1F) was 1.576 fold, the “LCE2A Fold Change” value (vaginal tissue construct; gene late cornified envelope 2A) was 4.097 fold and the “LCE2B Fold Change” value (vaginal tissue construct; gene late cornified envelope 2B) was 7.398 fold. The “LCE2C/LCE2D Fold Change” value (vaginal tissue construct; gene late cornified envelope 2D) was 10.393 fold, the “LCE3D Fold Change” value (vaginal tissue construct; gene late cornified envelope 3D) was 12.6 fold and the “LCE3E Fold Change” value (vaginal tissue construct; gene late cornified envelope 3E) was 13.5 fold. For the same compound, the “LCE5A Fold Change” value (vaginal tissue construct; gene late cornified envelope 5A) was 1.571 fold, the “LIPM Fold Change” value (vaginal tissue construct; gene lipase family member M) was 6.813 fold and the “LIPN Fold Change” value (vaginal tissue construct; gene lipase family member N) was 4.766 fold. The “LIPN1 Fold Change” value (vaginal tissue construct; gene lipin 1) was 3.23 fold, the “LOR Fold Change” value (vaginal tissue construct; gene loricrin) was 5.085 fold and the “LY6G6C Expr Fold Change” value (vaginal tissue construct; gene lymphocyte antigen 6 family member G6C) was 5.531 fold. For the same compound, the “HLA-C Expr Fold Change” value (vaginal tissue construct; gene major histocompatibility complex, class C) was −1.5 fold, the “HLA-B Expr Fold Change” value (vaginal tissue construct; gene major histocompatibility complex, class I, B) was −1.677 fold and the “HLA-DRA Expr Fold Change” value (vaginal tissue construct; gene major histocompatibility complex, class II, DR alpha) was −1.875 fold. For the same compound, the “HLA-DRB6 Expr Fold Change” value (vaginal tissue construct; gene major histocompatibility complex, class II, DR beta 6 (pseudogene)) was −1.5 fold, the “ME1 Fold Change” value (vaginal tissue construct; gene malic enzyme 1, NADP(+)-dependent cytosolic) was 2.4 fold and the “MUCL1 Fold Change” value (vaginal tissue construct; gene mucin like 1) was 1.4 fold. For the same compound, the “NCR3LG1 Expr Fold Change” value (vaginal tissue construct; gene natural killer cell cytotoxicity receptor 3 ligand 1) was 2.076 fold, the “NFAT5 Expr Fold Change” value (vaginal tissue construct; gene nuclear factor of activated T cells 5) was 1.924 fold and the “OLFM4 Expr Fold Change” value (vaginal tissue construct; gene olfactomedin 4) was −3.505 fold. For the same compound, the “PNLIPRP3 Fold Change” value (vaginal tissue construct; gene pancreatic lipase-related protein 3) was 1.4 fold, the “PLA2G2F Fold Change” value (vaginal tissue construct; gene phospholipase A2 group IIF) was 1.564 fold and the “PLA2G3 Fold Change” value (vaginal tissue construct; gene phospholipase A2 group III) was 1.953 fold. For the same compound, the “PLA2G4D Fold Change” value (vaginal tissue construct; gene phospholipase A2 group IVD) was 3.604 fold, the “PLA2G4E Fold Change” value (vaginal tissue construct; gene phospholipase A2 group IVE) was 2.225 fold and the “PLA2G10 Fold Change” value (vaginal tissue construct; gene phospholipase A2 group X) was −2.819 fold. The “PLAC8 Fold Change” value (vaginal tissue construct; gene placenta-specific 8) was −2.2 fold, the “PIGR Fold Change” value (vaginal tissue construct; gene polymeric immunoglobulin receptor) was −1.8 fold and the “PDCD1LG2 Expr Fold Change” value (vaginal tissue construct; gene programmed cell death 1 ligand 2) was −1.879 fold. For the same compound, the “RPS15A Expr Fold Change” value (vaginal tissue construct; gene ribosomal protein S15a) was −1.999 fold, the “SERPINB12 Fold Change” value (vaginal tissue construct; gene serpin family B member 12) was 4.409 fold and 4.3 fold and the “STAT4 Expr Fold Change” value (vaginal tissue construct; gene signal transducer and activator of transcription 4) was −2.315 fold. For the same compound, the “SPRR2G Fold Change” value (vaginal tissue construct; gene small proline rich protein 2G) was 7.539 fold, the “SPRR4 Fold Change” value (vaginal tissue construct; gene small proline rich protein 4) was 2.263 fold and the “SBSN Fold Change” value (vaginal tissue construct; gene suprabasin) was 3.488 fold and 3.4 fold. The “TLR3 Expr Fold Change” value (vaginal tissue construct; gene toll like receptor 3) was −2.566 fold, the “TRPV3 Fold Change” value (vaginal tissue construct; gene transient receptor potential cation channel subfamily V member 3) was 2.32 fold and 2.382 fold and the “UBA7 Expr Fold Change” value (vaginal tissue construct; gene ubiquitin like modifier activating enzyme 7) was −1.651 fold. The “VEGFA Fold Change” value (vaginal tissue construct; gene vascular endothelial growth factor A) was 1.2 fold, the “mir-23 Expr Fold Change” value (vaginal tissue construct; microRNA 23a) was 2.983 fold and the “mir-224 Expr Fold Change” value (vaginal tissue construct; microRNA 224) was 4.867 fold.
